Measured values published in the NIST ThermoML archive (doi:10.1016/j.jct.2013.10.001).
Values joined by “and” are separate entries in the source; they are usually repeats but may differ in a detail not shown here. Equal values may be shown once.

Details: Liquid

CC(C)CCCC(C)CCCC(C)CCCCC(C)CCCC(C)CCCC(C)C (stereo not given) [2,6,10,15,19,23-hexamethyltetracosane]
viscosity
Details	Falling or rolling sphere viscometry	quartz resonator viscometer
293.15 K, 10220 kPa	–	45.8 mPa·s and 46.2 mPa·s
293.15 K, 20250 kPa	–	57.9 mPa·s and 58.5 mPa·s
293.15 K, 30090 kPa	–	70.8 mPa·s and 71.5 mPa·s
293.15 K, 40100 kPa	–	87 mPa·s and 87.9 mPa·s
293.15 K, 50070 kPa	–	108.1 mPa·s and 109.2 mPa·s
293.15 K, 60060 kPa	–	130 mPa·s and 131.3 mPa·s
293.15 K, 71000 kPa	–	160.4 mPa·s and 162.1 mPa·s
293.15 K, 80600 kPa	–	180.6 mPa·s and 182.4 mPa·s
303.15 K, 11300 kPa	–	28.6 mPa·s and 28.5 mPa·s
303.15 K, 19900 kPa	–	34.1 mPa·s and 34 mPa·s
303.15 K, 20000 kPa	34.78 mPa·s	–
303.15 K, 31400 kPa	–	43.9 mPa·s and 43.8 mPa·s
303.15 K, 40000 kPa	51.64 mPa·s	–
303.15 K, 40600 kPa	–	53 mPa·s and 52.9 mPa·s
303.15 K, 50900 kPa	–	64.7 mPa·s and 64.6 mPa·s
303.15 K, 60000 kPa	74.96 mPa·s	78.3 mPa·s and 78.1 mPa·s
303.15 K, 71700 kPa	–	94.7 mPa·s and 94.5 mPa·s
303.15 K, 80000 kPa	107.09 mPa·s	107.8 mPa·s and 107.5 mPa·s
303.15 K, 100000 kPa	146.47 mPa·s	–
303.15 K, 120000 kPa	210.53 mPa·s	–
303.15 K, 140000 kPa	305.4 mPa·s	–
303.15 K, 160000 kPa	422.48 mPa·s	–
313.15 K, 10000 kPa	16.8 mPa·s	–
313.15 K, 10110 kPa	–	18.2 mPa·s and 18.3 mPa·s
313.15 K, 15000 kPa	18.9 mPa·s	–
313.15 K, 20170 kPa	–	22.4 mPa·s and 22.6 mPa·s
313.15 K, 25000 kPa	23.8 mPa·s	–
313.15 K, 29620 kPa	–	26.6 mPa·s and 26.9 mPa·s
313.15 K, 40550 kPa	–	32.5 mPa·s and 32.8 mPa·s
313.15 K, 49650 kPa	–	38.5 mPa·s and 38.8 mPa·s
313.15 K, 50000 kPa	39.2 mPa·s and 36.3 mPa·s	–
313.15 K, 60500 kPa	–	47 mPa·s and 47.4 mPa·s
313.15 K, 70400 kPa	–	55.9 mPa·s and 56.4 mPa·s
313.15 K, 75000 kPa	61.2 mPa·s and 59.6 mPa·s	–
313.15 K, 80670 kPa	–	66.4 mPa·s and 66.9 mPa·s
313.15 K, 100000 kPa	92.3 mPa·s and 91.3 mPa·s	–
313.15 K, 125000 kPa	136.4 mPa·s and 134.8 mPa·s	–
313.15 K, 150000 kPa	199 mPa·s and 194.1 mPa·s	–
313.15 K, 175000 kPa	275.3 mPa·s	–
313.15 K, 200000 kPa	386.2 mPa·s	–
313.15 K, 225000 kPa	537.7 mPa·s	–
313.15 K, 250000 kPa	744.7 mPa·s	–
323.15 K, 10250 kPa	–	12.8 mPa·s and 12.7 mPa·s
323.15 K, 20000 kPa	15.77 mPa·s	–
323.15 K, 20340 kPa	–	15.5 mPa·s
323.15 K, 30170 kPa	–	18.4 mPa·s
323.15 K, 40000 kPa	22.36 mPa·s	–
323.15 K, 40160 kPa	–	21.8 mPa·s
323.15 K, 50130 kPa	–	25.8 mPa·s
323.15 K, 60000 kPa	31.17 mPa·s	–
323.15 K, 60110 kPa	–	30.8 mPa·s and 30.8 mPa·s
323.15 K, 70120 kPa	–	36.2 mPa·s
323.15 K, 80000 kPa	42.71 mPa·s	–
323.15 K, 80060 kPa	–	43 mPa·s
323.15 K, 100000 kPa	57.75 mPa·s	–
323.15 K, 120000 kPa	77.38 mPa·s	–
323.15 K, 140000 kPa	102.35 mPa·s	–
323.15 K, 160000 kPa	135.1 mPa·s	–
323.15 K, 180000 kPa	175.94 mPa·s	–
323.15 K, 200000 kPa	228.18 mPa·s	–
333.15 K, 9160 kPa	–	9 mPa·s
333.15 K, 19900 kPa	–	10.9 mPa·s
333.15 K, 30240 kPa	–	13 mPa·s and 13.1 mPa·s
333.15 K, 40000 kPa	–	15.3 mPa·s
333.15 K, 49340 kPa	–	17.7 mPa·s
333.15 K, 60990 kPa	–	21.4 mPa·s
333.15 K, 70280 kPa	–	25 mPa·s
333.15 K, 80900 kPa	–	28.5 mPa·s and 28.6 mPa·s
338.15 K, 50600 kPa	15.56 mPa·s	–
338.15 K, 102800 kPa	32.94 mPa·s	–
338.15 K, 150200 kPa	60.9 mPa·s	–
338.15 K, 198400 kPa	108.9 mPa·s	–
338.15 K, 249700 kPa	194 mPa·s	–
338.15 K, 272700 kPa	243.8 mPa·s	–
338.15 K, 299800 kPa	327.6 mPa·s	–
338.15 K, 349200 kPa	538.5 mPa·s and 531 mPa·s	–
343.15 K, 10000 kPa	7.3 mPa·s	–
343.15 K, 15000 kPa	8 mPa·s	–
343.15 K, 25000 kPa	9.4 mPa·s	–
343.15 K, 50000 kPa	13.6 mPa·s	–
343.15 K, 75000 kPa	19.2 mPa·s and 18.7 mPa·s	–
343.15 K, 100000 kPa	26.5 mPa·s and 27.2 mPa·s	–
343.15 K, 125000 kPa	36.2 mPa·s and 38.1 mPa·s	–
343.15 K, 150000 kPa	49.1 mPa·s and 52 mPa·s	–
343.15 K, 175000 kPa	69.9 mPa·s	–
343.15 K, 200000 kPa	92.8 mPa·s	–
343.15 K, 225000 kPa	122.1 mPa·s	–
343.15 K, 250000 kPa	159.6 mPa·s	–
348.15 K, 20000 kPa	7.45 mPa·s	–
348.15 K, 40000 kPa	10.15 mPa·s	–
348.15 K, 60000 kPa	13.51 mPa·s	–
348.15 K, 80000 kPa	17.79 mPa·s	–
348.15 K, 100000 kPa	23.08 mPa·s	–
348.15 K, 120000 kPa	29.61 mPa·s	–
348.15 K, 140000 kPa	37.63 mPa·s	–
348.15 K, 160000 kPa	48.09 mPa·s	–
348.15 K, 180000 kPa	60.38 mPa·s	–
348.15 K, 198300 kPa	70.83 mPa·s	–
348.15 K, 200000 kPa	74.91 mPa·s	–
348.15 K, 200400 kPa	72.63 mPa·s	–
348.15 K, 300600 kPa	202.9 mPa·s	–
348.15 K, 349800 kPa	327.6 mPa·s	–
363.15 K, 10200 kPa	4.36 mPa·s	–
363.15 K, 21000 kPa	5.15 mPa·s	–
363.15 K, 30900 kPa	5.97 mPa·s	–
363.15 K, 40700 kPa	6.84 mPa·s	–
363.15 K, 50600 kPa	7.82 mPa·s	–
363.15 K, 60600 kPa	8.94 mPa·s	–
363.15 K, 70700 kPa	10.18 mPa·s	–
363.15 K, 80600 kPa	11.49 mPa·s	–
363.15 K, 91000 kPa	13.06 mPa·s	–
363.15 K, 100000 kPa	14.59 mPa·s and 14.2 mPa·s	–
363.15 K, 120400 kPa	18.36 mPa·s	–
363.15 K, 125000 kPa	19.9 mPa·s	–
363.15 K, 150000 kPa	26.8 mPa·s	–
363.15 K, 150300 kPa	25.56 mPa·s	–
363.15 K, 175000 kPa	35.1 mPa·s	–
363.15 K, 200000 kPa	45 mPa·s	–
363.15 K, 200200 kPa	42.82 mPa·s	–
363.15 K, 225000 kPa	56.7 mPa·s	–
363.15 K, 225600 kPa	55.03 mPa·s	–
363.15 K, 246900 kPa	66.23 mPa·s	–
363.15 K, 250000 kPa	70.4 mPa·s	–
